Laboratory results: patent US8343983B2, “Substituted pyrazolo-pyrimidine compounds” (ArQule, Inc., priority 2009, dated 2013)
Where two headings read alike, the source gives them in different places.

System: cancer cells
Experiment: MTS assay: inhibition of cell growth (formazan absorbance at 492 nm after 72 hours with test compound)
Format: cell-based
Details: inhibition class
Experimental: Cells were maintained at 37° C., 5% CO2 in DMEM media supplemented with 1% fetal bovine serum, penicillin/streptomycin and fungizone (Invitrogen). Cells were seeded into 96-well tissue culture plates at 3000 per well and cultured at 37° C. for 18 hours. Test compounds were dissolved and diluted to 300× in DMSO then diluted 1:40 in DMEM. Cells were incubated with test compounds for 72 hours followed by incubation with tetrazolium compound (3-(4,5-dimethylthiazol-2-yl)-5-(3-carboxymethoxyphenyl)-2-(4-sulfophenyl)-2H-tetrazolium, inner salt; MTS) and the electron coupling reagent, phenazine methosulfate (PMS) for 4 hours. […] The ability of compounds to inhibit cell growth in this assay is correlated with the reduction of dehydrogenase enzyme activity found in metabolically active cells. The measurement of the absorbance of the formazan was assessed using an ENVISION™ (Perkin Elmer) microplate reader at 492 nm. The calculated IC50 value is the concentration of the test compound that causes a 50% decrease in the absorbance. […] A=>79% inhibition, B=>50 to 79% inhibition, C=<50% inhibition.

[1] = Homo sapiens, DLD-1 cells, read-out: DLD-1, MTS 72 hours at 10 uM
[2] = Homo sapiens, KATO III cells, read-out: KATO III, MTS 72 hours at 10 uM
[3] = Homo sapiens, MDA-MB-231 cells, read-out: MDA-MB-231, MTS 72 hours at 10 uM
[4] = Homo sapiens, NCI-H1299 cells, read-out: NCI-H1299, MTS 72 hours at 10 uM
[5] = Homo sapiens, PC-3 cells, read-out: PC-3, MTS 72 hours at 10 uM
[6] = PACA-2 cells, read-out: PACA-2, MTS 72 hours at 10 uM

Row | SMILES | inhibition at 10 µM [1] | inhibition at 10 µM [2] | inhibition at 10 µM [3] | inhibition at 10 µM [4] | inhibition at 10 µM [5] | inhibition at 10 µM [6]
1 | CN(C)CCN(C)c1nc2c3c(n[nH]c3n1)CCN2Cc1ccccc1 [Compound 23, N-(6-benzyl-2,6,7,8-tetrahydro-1,2,3,5,6-pentaazaacenaphthylen-4-yl)-N,N′,N′-trimethylethane-1,2-diamine] | < 50% | < 50% | 50 to 79% | < 50% | > 79% | < 50%
2 | COc1ccc(CN2CCN(c3nc4c5c(n[nH]c5n3)CCN4Cc3ccccc3)CC2)cc1 [Compound 24, 6-benzyl-4-[4-(4-methoxybenzyl)piperazin-1-yl]-2,6,7,8-tetrahydro-1,2,3,5,6-pentaazaacenaphthylene] | < 50% | < 50% | < 50% | < 50% | < 50% | < 50%
3 | c1ccc(CN2CCc3n[nH]c4nc(NCCCN5CCOCC5)nc2c34)cc1 [Compound 25, 6-benzyl-N-(3-morpholin-4-ylpropyl)-2,6,7,8-tetrahydro-1,2,3,5,6-pentaazaacenaphthylen-4-amine] | < 50% | < 50% | < 50% | < 50% | < 50% | < 50%
4 | c1ccc(CN2CCc3n[nH]c4nc(NCCc5c[nH]c6ccccc56)nc2c34)cc1 [Compound 26, 6-benzyl-N-[2-(1H-indol-3-yl)ethyl]-2,6,7,8-tetrahydro-1,2,3,5,6-pentaazaacenaphthylen-4-amine] | < 50% | < 50% | < 50% | < 50% | < 50% | < 50%
5 | Cc1cccc(N2CCN(c3nc4c5c(n[nH]c5n3)CCN4Cc3ccccc3)CC2)n1 [Compound 27, 6-benzyl-4-[4-(6-methylpyridin-2-yl)piperazin-1-yl]-2,6,7,8-tetrahydro-1,2,3,5,6-pentaazaacenaphthylene] | < 50% | < 50% | < 50% | < 50% | < 50% | < 50%
6 | Brc1cccc(CCNc2nc3c4c(n[nH]c4n2)CCN3Cc2ccccc2)c1 [Compound 28, 6-benzyl-N-[2-(3-bromophenyl)ethyl]-2,6,7,8-tetrahydro-1,2,3,5,6-pentaazaacenaphthylen-4-amine] | < 50% | > 79% | > 79% | > 79% | > 79% | < 50%
7 | c1ccc(CN2CCc3n[nH]c4nc(N5CCN(Cc6ccccn6)CC5)nc2c34)cc1 [Compound 29, 6-benzyl-4-[4-(pyridin-2-ylmethyl)piperazin-1-yl]-2,6,7,8-tetrahydro-1,2,3,5,6-pentaazaacenaphthylene] | < 50% | < 50% | < 50% | < 50% | < 50% | < 50%
8 | c1ccc(CN2CCc3n[nH]c4nc(NCCc5cccnc5)nc2c34)cc1 [Compound 30, 6-benzyl-N-(2-pyridin-3-ylethyl)-2,6,7,8-tetrahydro-1,2,3,5,6-pentaazaacenaphthylen-4-amine] | 50 to 79% | 50 to 79% | 50 to 79% | < 50% | < 50% | < 50%
9 | c1ccc(CN2CCc3n[nH]c4nc(NCc5ccc6c(c5)OCO6)nc2c34)cc1 [Compound 31, N-(1,3-benzodioxol-5-ylmethyl)-6-benzyl-2,6,7,8-tetrahydro-1,2,3,5,6-pentaazaacenaphthylen-4-amine] | < 50% | < 50% | < 50% | < 50% | < 50% | < 50%
10 | COc1ccc(CCNc2nc3c4c(n[nH]c4n2)CCN3Cc2ccccc2)cc1 [Compound 32, 6-benzyl-N-[2-(4-methoxyphenyl)ethyl]-2,6,7,8-tetrahydro-1,2,3,5,6-pentaazaacenaphthylen-4-amine] | > 79% | > 79% | > 79% | > 79% | > 79% | > 79%
11 | c1ccc(CN2CCN(CCNc3nc4c5c(n[nH]c5n3)CCN4Cc3ccccc3)CC2)cc1 [Compound 33, 6-benzyl-N-[2-(4-benzylpiperazin-1-yl)ethyl]-2,6,7,8-tetrahydro-1,2,3,5,6-pentaazaacenaphthylen-4-amine] | < 50% | < 50% | < 50% | < 50% | < 50% | < 50%
12 | c1ccc(CN2CCc3n[nH]c4nc(NCCOc5ccccc5)nc2c34)cc1 [Compound 34, 6-benzyl-N-(2-phenoxyethyl)-2,6,7,8-tetrahydro-1,2,3,5,6-pentaazaacenaphthylen-4-amine] | < 50% | < 50% | 50 to 79% | < 50% | < 50% | 50 to 79%
13 | Clc1ccccc1CCNc1nc2c3c(n[nH]c3n1)CCN2Cc1ccccc1 [Compound 35, 6-benzyl-N-[2-(2-chlorophenyl)ethyl]-2,6,7,8-tetrahydro-1,2,3,5,6-pentaazaacenaphthylen-4-amine] | < 50% | < 50% | 50 to 79% | < 50% | < 50% | < 50%
14 | COc1cccc(CCNc2nc3c4c(n[nH]c4n2)CCN3Cc2ccccc2)c1 [Compound 36, 6-benzyl-N-[2-(3-methoxyphenyl)ethyl]-2,6,7,8-tetrahydro-1,2,3,5,6-pentaazaacenaphthylen-4-amine] | < 50% | < 50% | < 50% | < 50% | < 50% | < 50%
15 | c1ccc(CNc2nc3c4c(n[nH]c4n2)CCN3Cc2ccccc2)cc1 [Compound 37, N,6-dibenzyl-2,6,7,8-tetrahydro-1,2,3,5,6-pentaazaacenaphthylen-4-amine] | < 50% | < 50% | < 50% | < 50% | < 50% | < 50%
16 | FC(F)(F)c1cccc(N2CCN(c3nc4c5c(n[nH]c5n3)CCN4Cc3ccccc3)CC2)c1 [Compound 38, 6-benzyl-4-{4-[3-(trifluoromethyl)phenyl]piperazin-1-yl}-2,6,7,8-tetrahydro-1,2,3,5,6-pentaazaacenaphthylene] | < 50% | < 50% | < 50% | < 50% | < 50% | < 50%
17 | COc1cccc(CCNc2nc3c4c(n[nH]c4n2)CCN3Cc2ccccc2)c1OC [Compound 39, 6-benzyl-N-[2-(2,3-dimethoxyphenyl)ethyl]-2,6,7,8-tetrahydro-1,2,3,5,6-pentaazaacenaphthylen-4-amine] | < 50% | < 50% | < 50% | < 50% | < 50% | < 50%
18 | c1ccc(CN2CCc3n[nH]c4nc(NCc5ccc(Oc6ccccc6)cc5)nc2c34)cc1 [Compound 40] | < 50% | 50 to 79% | < 50% | 50 to 79% | < 50% | 50 to 79%
19 | CN1CCCC1CCNc1nc2c3c(n[nH]c3n1)CCN2Cc1ccccc1 (stereo not drawn) [Compound 41, 6-benzyl-N-[2-(1-methylpyrrolidin-2-yl)ethyl]-2,6,7,8-tetrahydro-1,2,3,5,6-pentaazaacenaphthylen-4-amine] | < 50% | < 50% | 50 to 79% | < 50% | < 50% | < 50%
20 | c1ccc(CN2CCc3n[nH]c4nc(N5CCN6CCCC6C5)nc2c34)cc1 (stereo not drawn) [Compound 42, 6-benzyl-4-(hexahydropyrrolo[1,2-a]pyrazin-2(1H)-yl)-2,6,7,8-tetrahydro-1,2,3,5,6-pentaazaacenaphthylene] | < 50% | < 50% | < 50% | < 50% | < 50% | < 50%
21 | COc1ccccc1N1CCN(c2nc3c4c(n[nH]c4n2)CCN3Cc2ccccc2)CC1 [Compound 43, 6-benzyl-4-[4-(2-methoxyphenyl)piperazin-1-yl]-2,6,7,8-tetrahydro-1,2,3,5,6-pentaazaacenaphthylene] | < 50% | > 79% | > 79% | < 50% | > 79% | < 50%
